In patent EP4763839A1 (Pamplona Therapeutics (Shenzhen) Co., Ltd., priority 2023, dated 2025):
Where a name gives a salt, the structure may show the parent alone.

Target: T1, IRAK4 (Homo sapiens, UniProt Q9NWZ3)
T1 sequence (Q9NWZ3 1-460): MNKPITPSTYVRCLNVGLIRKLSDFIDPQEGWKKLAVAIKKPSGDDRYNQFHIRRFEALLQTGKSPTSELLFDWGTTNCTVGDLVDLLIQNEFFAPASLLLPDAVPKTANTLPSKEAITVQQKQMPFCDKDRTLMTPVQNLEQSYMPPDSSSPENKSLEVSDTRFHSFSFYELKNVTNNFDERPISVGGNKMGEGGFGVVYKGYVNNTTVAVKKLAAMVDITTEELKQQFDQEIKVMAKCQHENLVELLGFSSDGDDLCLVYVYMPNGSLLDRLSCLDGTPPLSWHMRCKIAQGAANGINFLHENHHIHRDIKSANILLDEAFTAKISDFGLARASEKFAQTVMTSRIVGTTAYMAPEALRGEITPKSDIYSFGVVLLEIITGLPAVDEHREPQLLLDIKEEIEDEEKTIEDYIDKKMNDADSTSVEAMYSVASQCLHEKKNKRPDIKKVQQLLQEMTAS
Assay: Degradation of IRAK4 in THP1 cells, Western blot
Assay type: cell-based
Parameters: Degradation of IRAK4 in THP1 by compound; host or cells: THP-1
Details: THP-1 cells, 24 hours of incubation; for DC50: IRAK4 protein by Western blot, read-out: DC50; for Dmax: maximum degradation rate, read-out: Dmax
Experimental: After 24 hours of incubation, the cells were collected into 1.5 mL centrifuge tubes and centrifuged at 1,000 rpm for 5 minutes. […] The supernatants were collected, and the IRAK4 protein levels were respectively detected by Western blot (WB). The total protein concentration in the cell lysate supernatant was determined using a BCA protein quantification kit (NCM). Based on the total protein concentration detected by BCA, the samples were adjusted to 2 μg/μL using cell lysis buffer and 5×SDS-PAGE protein loading buffer (Beyotime), heated at 95°C for 5 minutes in a metal bath, and then placed on ice for an ice bath for 5 minutes before being used as the loading samples for Western blot analysis. Protein electrophoresis was performed using a 10% SDS-PAGE gel with a loading volume of 20 μL (total protein 40 μg) and Tris-SDS electrophoresis at a constant voltage of 80 V. After electrophoresis, the proteins on the gel were transferred to a 0.2 μm PVDF membrane (Immobilon) using a semi-dry transfer method at 0.5 A and 20 V for 60 minutes. After transfer, the membrane was placed in 5% skimmed milk and incubated at rt for 2 hours. After blocking, the PVDF membrane was incubated with primary antibody against IRAK4 (Abcam) at 4°C overnight. […] The color development and protein band imaging were performed using a chemiluminescence imaging system ([…] Technology Co., Ltd.). The protein bands were analyzed for grayscale values using Image J analysis software. The corrected grayscale values for each sample were calculated and then compared with those of the control group treated with DMSO alone to calculate the degradation rate.

DC50	Dmax	Compound
> 1000 nM	< 40%	N#Cc1cccc(C(=O)Nc2cn(-c3ccc(N4CCN(C5CCN(c6ccc(NC7CCC(=O)NC7=O)cc6F)CC5)CC4)cc3)nc2C(N)=O)n1 (centres unmarked) [Compound A388, N-(3-Carbamoyl-1-(4-(4-(1-(4-((2,6-Dioxopiperidin-3-yl)amino)-2-fluorophenyl)piperidin-4-yl)piperazin-1-yl)phenyl)-1H-pyrazol-4-yl)-6-cyanopicolinamide]
< 100 nM	> 60%	NC(=O)c1nn(-c2ccc(N3CCN(C4CCN(c5ccc(C(=O)NC6CCC(=O)NC6=O)c(F)c5)CC4)CC3)cc2)cc1NC(=O)c1cccc(C(F)(F)F)n1 (centres unmarked) [Compound A422, N-(3-Carbamoyl-1-(4-(4-(1-(4-((2,6-dioxopiperidin-3-yl)carbamoyl)-3-fluorophenyl)piperidin-4-yl)piperazin-1-yl)phenyl)-1H-pyrazol-4-yl)-6-(trifluoromethyl)picolinamide]
> 1000 nM	< 40%	CC(C)(O)c1nn(-c2ccc(N3CCN(C4CCN(c5ccc(NC6CCC(=O)NC6=O)cc5F)CC4)CC3)cc2)cc1NC(=O)c1cncc(C#N)c1 (centres unmarked) [Compound A389, 5-Cyano-N-(1-(4-(4-(1-(4-((2,6-dioxopiperidin-3-yl)amino)-2-fluorophenyl)piperidin-4-yl)piperazin-1-yl)phenyl)-3-(2-hydroxypropan-2-yl)-1H-pyrazol-4-yl)nicotinamide]
100 to 1000 nM	> 60%	COc1cc(NC2CCC(=O)NC2=O)ccc1N1CCC(CN2CCN(c3ccc(-n4cc(NC(=O)c5cccc(C(F)(F)F)n5)c(C(N)=O)n4)cc3)CC2)CC1 (centres unmarked) [Compound A423, N-(3-Carbamoyl-1-(4-(4-((1-(4-((2,6-dioxopiperidin-3-yl)amino)-2-methoxyphenyl)piperidin-4-yl)methyl)piperazin-1-yl)phenyl)-1H-pyrazol-4-yl)-6-(trifluoromethyl)picolinamide]
< 100 nM	> 60%	NC(=O)c1nn(C23CC(N4CCN(C5CCN(c6ccc(NC7CCC(=O)NC7=O)cc6F)CC5)CC4)(C2)C3)cc1NC(=O)c1cccc(C(F)(F)F)n1 (centres unmarked) [Compound A451, N-(3-Carbamoyl-1-(3-(4-(1-(4-((2,6-Dioxopiperidin-3-yl)amino)-2-fluorophenyl)piperidin-4-yl)piperazin-1-yl)bicyclo[1.1.1]pentan-1-yl)-1H-pyrazol-4-yl)-6-(trifluoromethyl)picolinamide]
100 to 1000 nM	40 to 60%	NC(=O)c1nn(-c2ccc(N3CCN(C4CCN(c5ccc(NC6CCC(=O)NC6=O)cn5)CC4)CC3)cc2)cc1NC(=O)c1cccc(C(F)(F)F)n1 (centres unmarked) [Compound A432, N-(3-Carbamoyl-1-(4-(4-(1-(5-((2,6-Dioxopiperidin-3-yl)amino)pyridin-2-yl)piperidin-4-yl)piperazin-1-yl)phenyl)-1H-pyrazol-4-yl)-6-(trifluoromethyl)picolinamide]
< 100 nM	> 60%	CC(C)(O)c1nn(-c2ccc(N3CCN(CCC4CCN(C(=O)c5ccc(F)c(N6CCC(=O)NC6=O)c5)CC4)CC3)cc2)cc1NC(=O)c1cccc(C(F)(F)F)n1 [Compound A453, N-(1-(4-(4-(2-(1-(3-(2,4-Dioxotetrahydropyrimidin-1(2H)-yl)-4-fluorobenzoyl)piperidin-4-yl)ethyl)piperazin-1-yl)phenyl)-3-(2-hydroxypropan-2-yl)-1H-pyrazol-4-yl)-6-(trifluoromethyl)picolinamide]

Continued, molecule first:

Compound	DC50	Dmax
COc1ccc(C(=O)N2CCC3(CC2)CC(Cc2ccc(-n4cc(NC(=O)c5cccc(C(F)(F)F)n5)c(C(N)=O)n4)cc2)C3)cc1N1CCC(=O)NC1=O [Compound A318, N-(3-Carbamoyl-1-(4-((7-(3-(2,4-dioxotetrahydropyrimidin-1(2H)-yl)-4-methoxybenzoyl)-7-azaspiro[3.5]nonan-2-yl)methyl)phenyl)-1H-pyrazol-4-yl)-6-(trifluoromethyl)picolinamide]	< 100 nM	> 60%
Cn1c(=O)n(C2CCC(=O)NC2=O)c2cccc(C#CCOC3CCN(C(=O)c4ccc(-n5cc(NC(=O)c6cccc(-c7ccn[nH]7)n6)c(S(N)(=O)=O)n5)cc4)CC3)c21 (centres unmarked) [Compound A335, N-(1-(4-(4-((3-(1-(2,6-Dioxopiperidin-3-yl)-3-methyl-2-oxo-2,3-dihydro-1H-benzo[d]imidazol-4-yl)prop-2-yn-1-yl)oxy)piperidine-1-carbonyl)phenyl)-3-sulfamoyl-1H-pyrazol-4-yl)-6-(1H-pyrazol-5-yl)picolinamide]	< 100 nM	> 60%
Cn1c(=O)n(C2CCC(=O)NC2=O)c2cccc(N3CCC4(CC3)CN(Cc3ccc(-n5cc(NC(=O)c6cccc(C(F)(F)F)n6)c(C(N)=O)n5)cc3)C4)c21 (centres unmarked) [Compound A319, N-(3-carbamoyl-1-(4-((7-(1-(2,6-dioxopiperidin-3-yl)-3-methyl-2-oxo-2,3-dihydro-1H-benzo [d]imidazol-4-yl)-2,7-diazaspiro[3.5]nonan-2-yl)methyl)phenyl)-1H-pyrazol-4-yl)-6-(trifluoromethyl)picolinamide]	100 to 1000 nM	40 to 60%
Cn1c(=O)n(C2CCC(=O)NC2=O)c2cccc(N3CCC(CN4CCN(c5ccc(-n6cc(NC(=O)c7cccc(C(F)(F)F)n7)c(C(N)=O)n6)cc5)CC4)C3)c21 (centres unmarked) [Compound A305, N-(3-carbamoyl-1-(4-(4-((1-(1-(2,6-dioxopiperidin-3-yl)-3-methyl-2-oxo-2,3-dihydro-1H-benzo[d]imidazol-4-yl)pyrrolidin-3-yl)methyl)piperazin-1-yl)phenyl)-1H-pyrazol-4-yl)-6-(trifluoromethyl)picolinamide]	100 to 1000 nM	40 to 60%
COc1ccc(C(=O)N2CCC(CN3CCN(C(=O)c4ccc(-n5cc(NC(=O)c6cccc(C(F)(F)F)n6)c(C(N)=O)n5)cc4)CC3)C2)cc1N1CCC(=O)NC1=O (centres unmarked) [Compound A313, N-(3-carbamoyl-1-(4-((1-(3-(2,4-dioxotetrahydropyrimidin-1(2H)yl)-4-methoxybenzoyl)pyrrolidin-3-yl)methyl)piperazine-1-carbonyl)phenyl)-1H-pyrazol-4-yl)-6-(trifluoromethyl)picolinamide trifluoroacetate]	100 to 1000 nM	> 60%
Cn1c(=O)n(C2CCC(=O)NC2=O)c2ccc(N3CCC(CN4CCN(c5ccc(-n6cc(NC(=O)c7cccc(C(F)(F)F)n7)c(C(N)=O)n6)cc5)CC4)C(F)(F)C3)cc21 (centres unmarked) [Compound A299, N-(3-Carbamoyl-1-(4-(4-((1-(1-(2,6-dioxopiperidin-3-yl)-3-methyl-2-oxo-2,3-dihydro-1H-benzo[d]imidazol-5-yl)-3,3-difluoropiperidin-4-yl)methyl)piperazin-1-yl)phenyl)-1H-pyrazol-4-yl)-6-(trifluoromethyl)picolinamide]	< 100 nM	> 60%
Cn1c(=O)n(C2CCC(=O)NC2=O)c2cccc(N3CCC4(CC3)CC(NCc3ccc(-n5cc(NC(=O)c6cccc(-c7ccn[nH]7)n6)c(S(N)(=O)=O)n5)cc3)C4)c21 (centres unmarked) [Compound A322, N-(1-(4-(((7-(1-(2,6-dioxopiperidin-3-yl)-3-methyl-2-oxo-2,3-dihydro-1H-benzo[d]imidazol-4-yl)-7-azaspiro[3.5]nonan-2-yl)amino)methyl)phenyl)-3-sulfamoyl-1H-pyrazol-4-yl)-6-(1H-pyrazol-5-yl)picolinamide]	< 100 nM	> 60%
NC(=O)c1nn(-c2ccc(N3CCN(C4CCN(c5ccc(C(=O)NC6CCC(=O)NC6=O)nc5)CC4)CC3)cc2)cc1NC(=O)c1cccc(C(F)(F)F)n1 (centres unmarked) [Compound A379, N-(3-Carbamoyl-1-(4-(4-(1-(6-((2,6-dioxopiperidin-3-yl)carbamoyl)pyridin-3-yl)piperidin-4-yl)piperazin-1-yl)phenyl)-1H-pyrazol-4-yl)-6-(trifluoromethyl)picolinamide]	< 100 nM	> 60%
Cn1c(=O)n(C2CCC(=O)NC2=O)c2cccc(N3CCC(C(=O)N4CCN(Cc5ccc(-n6cc(NC(=O)c7cccc(-c8ccn[nH]8)n7)c(S(N)(=O)=O)n6)cc5)CC4)CC3)c21 (centres unmarked) [Compound A331, N-(1-(4-((4-(1-(1-(2,6-dioxopiperidin-3-yl)-3-methyl-2-oxo-2,3-dihydro-1H-benzo[d]imidazol-4-yl)piperidine-4-carbonyl)piperazin-1-yl)methyl)phenyl)-3-sulfamoyl-1H-pyrazol-4-yl)-6-(1H-pyrazol-5-yl)picolinamide]	< 100 nM	> 60%
